Patent US10053452B2 (AMGEN INC., priority 2013, dated 2018)

How the values were obtained:
[1] = Solubility studies in aqueous media, excipients or solvents (18-24 hrs, HPLC; solid form by XRPD); type: physicochemical; conditions: for solubility at 24 h: thermodynamic from solid
Method: (§1) An excess of solid material was stirred at 25° C. or 55° C. for 18-24 hrs in aqueous media, excipients or solvents as noted. At the appropriate time point, an aliquot of the sample was centrifuged. The supernatant was filtered through a PTFE syringe filter and analyzed by HPLC versus a standard curve. The solid was then analyzed by XRPD for identification of the form.

[2] = Solid photostability (1×ICH dose for UV and visible light); type: physicochemical; conditions: 1×ICH dose for UV and visible light
Method: For photostability studies, enough sample was placed in a open 100 mL glass crystallization dish and exposed to 1×ICH dose for UV and visible light. Samples were weighed out for HPLC, XRPD, TGA and DSC analysis as abve after the exposure to light.

[3] = system: solid ovarian cancerous tumor; test: Human Ph I clinical trial, tumor response: ovarian tumor
Method: Specifically, FIG. 32A illustrates diametric measurements along the short axis of the tumor dosed with 30 mg once daily over a period of two (2) cycles, ie., 4 week (28 days).

solid tumor = test: Human Ph I clinical trial: active dose and MTD/DLT; conditions: oral
[4] = Solid stability studies (storage at set temperature/humidity; HPLC, XRPD, TGA, DSC); type: physicochemical; conditions: for Total Impurities (%): acceptance < or = 2.0; for Assay (% w/w): acceptance 97.0-103.0; for Description: acceptance: White to brown powder
[5] = system: stage IV solid endometrial cancerous tumor; test: Human Ph I clinical trial, tumor response: endometrial tumor; conditions: CT
Description: FIGS. 31A and 31B are measurements of the same endometrial solid tumor depicted in FIGS. 30A and 30B, but with its size shown as measured alone the short axis by CT and calculated using RECIST 1.1.

[6] = Dynamic vapor sorption (DVS) moisture uptake; type: physicochemical
Method: Moisture uptake of a given AMG 900 salt crystalline form was assessed by dynamic vapor sorption (DVS). Moisture sorption/desorption data was collected on a Surface Measurement System (SMS) DVS-Advantage vapor sorption analyzer (SMS, Alperton, Middlesex, UK). The sorption and desorption data was collected over a range of 0 to 95% relative humidity (RH) at 25° C. with 5-10% RH intervals under a nitrogen purge. Equilibrium criteria used for analysis were less than 0.002% weight change in 5 minutes, with a maximum equilibrium time of 120 minutes if the weight criterion was not met.

[7] = Solid stability studies (storage at set temperature/humidity; HPLC, XRPD, TGA, DSC); type: physicochemical; conditions: for Assay (% w/w): acceptance 97.0-103.0; for physical and chemical stability of unmilled drug substance: up to 3 months, 30° C./65% RH and 40° C./75% RH
Method: Stability data was obtained for up to 3 months storage at the long term storage condition of 30° C./65% RH and at the accelerated condition of 40° C./75% RH for unmilled drug substance.
Another 10 mg was weighed into a 4 mL glass vial and placed under the same conditions. At each time point one flask was removed from the chamber or over, diluted with methanol to the 100 mL mark and analyzed by HPLC for purity and label claim % compared to the standard. Also at each time point one vial was removed from the chamber and the contents were analyzed by XRPD, TGA and/or DSC.

[8] = Relationship / interconversion between bismesylate crystalline forms; type: physicochemical
Description: AMG 900 bismesylate salt crystalline From A was identified as a dihydrate; AMG 900 bismesylate salt crystalline From B was identified as a dihydrate; AMG 900 bismesylate salt crystalline From C was identified as a monohydrate; and AMG 900 bismesylate salt crystalline From D was identified as a monohydrate. […].

Dog pK study = type: in vivo
Description: To this end, a various crystalline forms of different pharmaceutically acceptable salts of AMG 900 were investigated and made.

p-Histone H3 [9] = test: p-Histone H3 in HeLa cells; conditions: Homo sapiens, read-out: IC50 p-Histone H3
p-Histone H3 [10] = test: p-Histone H3 in Jurkat cells; conditions: Homo sapiens, read-out: IC50 for p-Histone H3
[11] = Solubility of salt/crystal forms in 0.01N HCl over 24 hrs; type: physicochemical; conditions: slurry
Method: as §1

[12] = platinum-sensitive ovarian cancer patient, 16 mg, then 8 mg (cycles 4-15), 12 mg (cycle 16) once daily, end of cycle 16
[13] = 30° C./65% RH, Initial Period Time 0
[14] = up to 12 weeks, 25° C./60% RH, 40° C./60% RH, 40° C./75% RH and 60° C./Amb

Cc1csc(-c2nnc(Nc3ccc(Oc4ncccc4-c4ccnc(N)n4)cc3)c3ccccc23)c1 [AMG 900 bismesylate dihydrate form B, N-(4-((3-(2-amino-4-pyrimidinyl)-2-pyridinyl)oxy)phenyl)-4-(4-methyl-2-thienyl)-1-phthalazinamine]
form stability after slurry in various aqueous media and solvents ([1]; 24 hrs, all media except aqueous pH 7 and pH 12): remain unchanged (stable)
solubility at 24 h ([1]; DMF, organic solvent or mixture): > 12000 µg/mL
solubility at 24 h ([1]; THF, organic solvent or mixture): 12 µg/mL
solubility at 24 h ([1]; acetone, organic solvent or mixture): 20 µg/mL
solubility at 24 h ([1]; aqueous MSA, aqueous buffer, pH 0.5 MSA): 676 µg/mL
solubility at 24 h ([1]; aqueous MSA, aqueous buffer, pH 1.0 MSA): > 7400 µg/mL
solubility at 24 h ([1]; aqueous MSA, aqueous buffer, pH 1.5 MSA): 3400 µg/mL
solubility at 24 h ([1]; aqueous MSA, aqueous buffer, pH 2.0 MSA): 1620 µg/mL
form after slurry ([1]; aqueous pH 7, 24 hrs): converted to the free base form C hydrate
form after slurry ([1]; aqueous pH 12, 24 hrs): converted to the free base form C hydrate
solubility at 24 h ([1]; ethanol, organic solvent or mixture): > 12000 µg/mL
solubility at 24 h ([1]; ethyl acetate, organic solvent or mixture): < 1 µg/mL
solubility at 24 h ([1]; isopropyl alcohol, organic solvent or mixture): > 1 µg/mL
solubility at 24 h ([1]; methanol, organic solvent or mixture): > 12000 µg/mL
solubility at 24 h ([1]; methanol/water (9:1), organic solvent or mixture): > 12000 µg/mL
solubility at 24 h ([1]; methyl ethyl ketone, organic solvent or mixture, Methyl ethyl keone): < 1 µg/mL
solubility at 24 h ([1]; organic solvent or mixture, Acetonitrile (ACN)): 383 µg/mL
solubility at 24 h ([1]; organic solvent or mixture, Dichloroethane (DCE)): 8 µg/mL
solubility at 24 h ([1]; phosphate buffer, aqueous buffer, pH 7.0 Phosphate): < 1 µg/mL
solubility at 24 h ([1]; phosphate buffer, aqueous buffer, pH 12.0 Phosphate): < 1 µg/mL
chemical and physical stability to light [2]: chemically and physically stable
decrease in CA-125 [3, 12]: 45%
decrease in SLD (sum of long axis diameters) on CT [3, 12]: 16%
reduction of short axis diameter versus base line ([3]; stage IV-B ovarian tumor patient, 30 mg once daily, 4 days on/10 days off, two cycles, week 4, RECIST 1.1): about 30%
dose at which MTD's and DLT's were observed (solid tumor): greater than 8 mg
once daily dose at which anti cancer activity was observed (solid tumor; on-off schedule, ovarian and endometrial tumors): ≥ 8 mg
Water content (%) ([4]; 30° C./65% RH, 3 months): 5.1%
Total Impurities (%) ([4]; 30° C./65% RH, 3 months): 0.21%
4-aminophenol content (ppm) ([4]; 30° C./65% RH, 3 months, acceptance < or = 500): <20 ppm
Water content (%) ([4]; 30° C./65% RH, 6 months): 5.2%
Assay (% w/w) ([4]; 30° C./65% RH, 6 months): 99.1 % w/w
Total Impurities (%) ([4]; 30° C./65% RH, 6 months): 0.16%
4-aminophenol content (ppm) ([4]; 30° C./65% RH, 6 months, acceptance < or = 500): <20 ppm
Description ([4]; 30° C./65% RH, 6 months): conforms
Water content (%) ([4]; 30° C./65% RH, 9 months): 5.2%
Assay (% w/w) ([4]; 30° C./65% RH, 9 months): 101.2 % w/w
Total Impurities (%) ([4]; 30° C./65% RH, 9 months): 0.25%
4-aminophenol content (ppm) ([4]; 30° C./65% RH, 9 months, acceptance < or = 500): <20 ppm
Description ([4]; 30° C./65% RH, 9 months): conforms
Water content (%) ([4]; 30° C./65% RH, 12 months): 5.2%
Assay (% w/w) ([4]; 30° C./65% RH, 12 months): 100.1 % w/w
Total Impurities (%) ([4]; 30° C./65% RH, 12 months): 0.26%
4-aminophenol content (ppm) ([4]; 30° C./65% RH, 12 months, acceptance < or = 500): <20 ppm
Intermediate* content (ppm) ([4]; 30° C./65% RH, 12 months, acceptance < or = 500, intermediate is 4-(2-(4-aminophenoxy)pyridin-3-yl)pyrimidin-2-amine): 171 ppm
Description ([4]; 30° C./65% RH, 12 months): conforms
Water content (%) [4, 13]: 5.0%
Description [4, 13]: conforms
chemical stability (HPLC) [4, 14]: no degradation detected
physical stability (XRPD, TGA and DSC) [4, 14]: physically stable
decrease of long axis diameter versus base line ([5]; endometrial tumor patient, 30 mg+GCSF once daily, 4 days on/10 days off, week 24, RECIST 1.0): approximately 50%
hygroscopicity [6]: non-hygroscopic
stability to humidity changes (DVS isotherm) ([6]; above 10% RH): stable to humidity changes
Assay (% w/w) ([7]; 30° C./65% RH, 3 months): 99.2 % w/w
Description ([7]; 30° C./65% RH, 3 months, acceptance: White to brown powder): conforms
Assay (% w/w) [7, 13]: 98.1 % w/w
Total Impurities (%) ([7]; 30° C./65% RH, Initial Period Time 0, acceptance < or = 2.0): 0.35%
4-aminophenol content (ppm) ([7]; 30° C./65% RH, Initial Period Time 0, acceptance < or = 500): <20 ppm
physical and chemical stability of unmilled drug substance ([7]; listed as AMG 900 bis-mesylate dihydrate drug substance): remain within specifications
physical and chemical stability of unmilled drug substance ([7]; listed as AMG 900 bismesylate (dimethanesulfonate) salt crystalline Form B): stable
thermodynamic stability of the crystalline form [8]: thermodynamically stable form
exposure in a dog pK study (Dog pK study; dog): acceptable

Cc1csc(-c2nnc(Nc3ccc(Oc4ncccc4-c4ccnc(N)n4)cc3)c3ccccc23)c1 [AMG 900, N-(4-((3-(2-amino-4-pyrimidinyl)-2-pyridinyl)oxy)phenyl)-4-(4-methyl-2-thienyl)-1-phthalazinamine]
IC50 (p-Histone H3 [9]; 1 h): 59 nM
IC50 (p-Histone H3 [9]): 238 nM
IC50 (p-Histone H3 [10]; 1 h): 66 nM
IC50 (p-Histone H3 [10]; 24 h): 4 nM
reduction of short axis diameter ([5]; same endometrial tumor, 30 mg once daily, week 16, eight cycles, RECIST 1.1): up to 40%

Cc1csc(-c2nnc(Nc3ccc(Oc4ncccc4-c4ccnc(N)n4)cc3)c3ccccc23)c1 [N-(4-((3-(2-amino-4-pyrimidinyl)-2-pyridinyl)oxy)phenyl)-4-(4-methyl-2-thienyl)-1-phthalazinamine]
stability of the crystalline form [8]: unstable
form conversion at room temperature ([8]; room temperature, normal humidity): converts back to crystalline Form B

Cc1csc(-c2nnc(Nc3ccc(Oc4ncccc4-c4ccnc(N)n4)cc3)c3ccccc23)c1 [bismesylate dihydrate form A, N-(4-((3-(2-amino-4-pyrimidinyl)-2-pyridinyl)oxy)phenyl)-4-(4-methyl-2-thienyl)-1-phthalazinamine]
solubility versus AMG 900 free base crystalline form A [11]: significant improvement in solubility
form conversion over time ([8]; room temperature in a capped vial): converts to form B

Cc1csc(-c2nnc(Nc3ccc(Oc4ncccc4-c4ccnc(N)n4)cc3)c3ccccc23)c1 [bismesylate monohydrate form C, N-(4-((3-(2-amino-4-pyrimidinyl)-2-pyridinyl)oxy)phenyl)-4-(4-methyl-2-thienyl)-1-phthalazinamine]
form conversion with an increase in humidity ([8]; relative humidity at or greater than 50%): convert to the dihydrate form B

Cc1csc(-c2nnc(Nc3ccc(Oc4ncccc4-c4ccnc(N)n4)cc3)c3ccccc23)c1 [free base crystalline form A of AMG 900, N-(4-((3-(2-amino-4-pyrimidinyl)-2-pyridinyl)oxy)phenyl)-4-(4-methyl-2-thienyl)-1-phthalazinamine]
solubility in water ([1]; water): poorly soluble
bioavailability in dogs (Dog pK study; dogs): low
